Laboratory results as given in PMC11062899, “De novo development of small cyclic peptides that are orally bioavailable” (Nature Chemical Biology, 2023).
Where “and” joins values, the source holds several entries; their conditions need not be identical. Equal entries are not always repeated. One block for each compound: values may come before it.

Tests used:
[1] = biological target: T1, porcine pepsin (Sus scrofa, UniProt P00791); experiment: Peptide stability in simulated gastric fluid (SGF); assay type: in vitro ADME; details: for SGF stability, Residual peptide Average / SGF stability, Residual peptide: after 8 h vs 0 h (TIC); for SGF stability, Residual peptide Average: average of R1-R3; for SGF stability, Residual peptide: single replicates R1-R3; for remaining at 8 h: simulated gi fluid, 37 °C, pH 1.2, read-out: Proteolytic stability: SGF (8 h) % remaining
T1 construct: 0.32 g of porcine pepsin (Sigma-Aldrich, P7125) was dissolved under gentle agitation; purchased Sigma-Aldrich P7125
T1 sequence (P00791 60-385): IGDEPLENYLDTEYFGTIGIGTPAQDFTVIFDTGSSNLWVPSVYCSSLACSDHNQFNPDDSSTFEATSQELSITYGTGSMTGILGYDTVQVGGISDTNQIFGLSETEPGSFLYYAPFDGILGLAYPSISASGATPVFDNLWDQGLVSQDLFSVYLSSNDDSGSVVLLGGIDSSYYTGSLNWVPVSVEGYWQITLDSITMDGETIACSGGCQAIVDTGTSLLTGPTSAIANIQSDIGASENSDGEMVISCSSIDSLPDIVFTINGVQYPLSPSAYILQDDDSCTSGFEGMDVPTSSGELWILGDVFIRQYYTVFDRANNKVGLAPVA
Method in brief: (§1)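 Peptide from a 1 mM DMSO stock was added to fluid pre-warmed at 37 °C. SGF was pH 1.2 NaCl with porcine pepsin (0.32 g per 100 ml), and SIF was pH 6.8 potassium phosphate with porcine pancreatin (1 g per 100 ml). Supernatant peptide was quantified by LC–MS, with residual expressed as T1/T0.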

[2] = Metabolic stability in rat liver microsomes (RLMs); details: rat, microsomes
[3] = biological target: T2, rat α-thrombin (Rattus norvegicus, UniProt P18292); experiment: Protease inhibition, Ki for rat α-thrombin (fluorogenic substrate Z-Gly-Gly-Arg-AMC); assay type: biochemical; details: replicates R1-R3
T2 construct: rat α-thrombin (Molecular Innovations) were used at final concentrations of 2 nM and 3 nM; purchased Molecular Innovations
Method in brief: (§2)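 Ki values come from Cheng–Prusoff correction of IC50, itself fitted by four-parameter logistic regression of activity versus a no-peptide control. Assays used 2 nM human or 3 nM rat thrombin, 50 μM Z-Gly-Gly-Arg-AMC, 30 min kinetic fluorescence at 25 °C.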

[4] = biological target: human α-thrombin (Homo sapiens, UniProt P00734); experiment: Protease inhibition, Ki for human α-thrombin (fluorogenic substrate Z-Gly-Gly-Arg-AMC); assay type: biochemical; details: replicates R1-R3
Method in brief: as §2

[5] = Passive artificial membrane permeability (PAMPA); details: for PAMPA permeability: % permeability: 50 μM, 12–18 h, acceptor concentration relative to equilibrium; for Papp at 50 μM / Permeability% Average / Permeability% R1 / Permeability% R3: PAMPA; for Papp at 50 μM: pH 7.4; for Permeability% Average: average of R1-R3; for Permeability% R1: replicate R1; for Permeability% R1 / Permeability% R3: TIC of top well sample relative to sample at theoretical equilibrium; for Permeability% R3: replicate R3
[6] = Peptide stability in simulated intestinal fluid (SIF); assay type: in vitro ADME, porcine; details: simulated gi fluid; 8 h, 37 °C, pH 6.8; read-out: Proteolytic stability: SIF (8 h) % remaining
Method in brief: as §1

[7] = system: porcine pancreatin; experiment: as above; assay type: in vitro ADME; details: after 8 h vs 0 h (TIC); for SIF stability, Residual peptide Average: average of R1-R3
Method in brief: as §1

[8] = CL (ul/min/mg protein) R1, RLM CL, replicate R1
[9] = CL (ul/min/mg protein) R2, RLM CL, replicate R2
[10] = CL (ul/min/mg protein) R3, RLM CL, replicate R3
[11] = Half Life (min) R1, RLM metabolic stability, replicate R1, 0-60 min
[12] = Half Life (min) R2, RLM metabolic stability, replicate R2, 0-60 min
[13] = Half Life (min) R3, RLM metabolic stability, replicate R3, 0-60 min
[14] = Metabolic stability: Half life T1/2 (min), RLMs, mean and SD, three measurements
[15] = Metabolic stability: RLM CL (ul/min/mg), RLMs, mean and SD, three measurements
[16] = peptide 1.33E+02 uM, slope of proteolytic substrate cleavage over time

SGF stability, Residual peptide Average [1]: 98.52
SGF stability, Residual peptide [1]: 104.99 and 99.11 and 91.47
remaining at 8 h [1]: 99 ± 7%
microsomal CLint [2, 8]: 61 µL/min/mg
microsomal CLint [2, 9]: 51.4 µL/min/mg
microsomal CLint [2, 10]: 62.2 µL/min/mg
half-life [2, 11]: 22.7 min
half-life [2, 12]: 26.9 min
half-life [2, 13]: 22.3 min
half-life [2, 14]: 24 ± 2 min
microsomal CLint [2, 15]: 58 ± 5 µL/min/mg
Rat alpha thrombin inhibition, slope normalized to DMSO [3, 16]: 3.3 and 2.8 and 2.1
Rat alpha thrombin inhibition, slope normalized to DMSO ([3]; peptide 1.67E+01 uM): 6.6 and 5.4 and 5.1
Rat alpha thrombin inhibition, slope normalized to DMSO ([3]; peptide 2.08E+00 uM): 33.9 and 33.4 and 32.2
Rat alpha thrombin inhibition, slope normalized to DMSO ([3]; peptide 3.33E+01 uM): 4.4 and 3.4 and 3.5
Rat alpha thrombin inhibition, slope normalized to DMSO ([3]; peptide 4.17E+00 uM): 19.8 and 18.5 and 18.4
Rat alpha thrombin inhibition, slope normalized to DMSO ([3]; peptide 6.67E+01 uM): 3.3 and 1.7 and 2.4
Rat alpha thrombin inhibition, slope normalized to DMSO ([3]; peptide 8.33E+00 uM): 11.8 and 11.2 and 10.2
Human alpha thrombin inhibition, slope normalized to DMSO ([4]; peptide 1.02E-03 uM): 95.7 (2×) and 101.7
Human alpha thrombin inhibition, slope normalized to DMSO ([4]; peptide 1.04E+00 uM): 62.0 and 61.5 and 59.7
Human alpha thrombin inhibition, slope normalized to DMSO ([4]; peptide 1.27E-04 uM): 99.4 and 101.3 and 98.3
Human alpha thrombin inhibition, slope normalized to DMSO ([4]; peptide 1.30E-01 uM): 89.0 and 89.6 and 91.9
Human alpha thrombin inhibition, slope normalized to DMSO [4, 16]: 4.8 and 2.4 and 6.7
Human alpha thrombin inhibition, slope normalized to DMSO ([4]; peptide 1.63E-02 uM): 103.7 and 97.9 and 94.4
Human alpha thrombin inhibition, slope normalized to DMSO ([4]; peptide 1.67E+01 uM): -1.3 and 11.2 and 10.7
Human alpha thrombin inhibition, slope normalized to DMSO ([4]; peptide 2.03E-03 uM): 102.2 and 96.9 and 97.7
Human alpha thrombin inhibition, slope normalized to DMSO ([4]; peptide 2.08E+00 uM): 40.1 and 46.6 and 47.4
Human alpha thrombin inhibition, slope normalized to DMSO ([4]; peptide 2.54E-04 uM): 100.3 and 97.2 and 96.3
Human alpha thrombin inhibition, slope normalized to DMSO ([4]; peptide 2.60E-01 uM): 83.3 and 73.2 and 85.9
Human alpha thrombin inhibition, slope normalized to DMSO ([4]; peptide 3.18E-05 uM): 101.8 and 98.5 and 103.1
Human alpha thrombin inhibition, slope normalized to DMSO ([4]; peptide 3.26E-02 uM): 95.9 and 94.2 and 94.5
Human alpha thrombin inhibition, slope normalized to DMSO ([4]; peptide 3.33E+01 uM): 6.5 (2×) and 8.7
Human alpha thrombin inhibition, slope normalized to DMSO ([4]; peptide 4.07E-03 uM): 101.7 and 97.8 and 102.2
Human alpha thrombin inhibition, slope normalized to DMSO ([4]; peptide 4.17E+00 uM): 27.0 and 27.6 and 28.2
Human alpha thrombin inhibition, slope normalized to DMSO ([4]; peptide 5.09E-04 uM): 97.5 and 98.8 and 97.2
Human alpha thrombin inhibition, slope normalized to DMSO ([4]; peptide 5.21E-01 uM): 78.3 and 65.6 and 76.6
Human alpha thrombin inhibition, slope normalized to DMSO ([4]; peptide 6.36E-05 uM): 105.9 and 99.3 and 96.8
Human alpha thrombin inhibition, slope normalized to DMSO ([4]; peptide 6.51E-02 uM): 92.3 and 91.0 and 94.1
Human alpha thrombin inhibition, slope normalized to DMSO ([4]; peptide 6.67E+01 uM): 5.1 and 4.9 and 7.0
Human alpha thrombin inhibition, slope normalized to DMSO ([4]; peptide 8.14E-03 uM): 97.0 (2×) and 91.0
Human alpha thrombin inhibition, slope normalized to DMSO ([4]; peptide 8.33E+00 uM): 19.7 and 13.2 and 20.2
PAMPA permeability: % permeability [5]: 8.6 ± 3.0%
Papp at 50 μM [5]: 0.575 ×10⁻⁶ cm/s
Permeability% Average [5]: 8.6%
Permeability% R1 [5]: 11.91%
Permeability% R3 [5]: 7.66%
remaining at 8 h [6]: 6.3 ± 1.9%
SIF stability, Residual peptide Average [7]: 6.32
SMILES: O=C(N[C@H]1CSCCS(=O)(=O)CCSCCNC(=O)C2(CC2)CNC(=O)[C@H](Cc2ccccc2)NC1=O)c1ccc(Cl)s1 [compound 16]

SGF stability, Residual peptide Average [1]: 98.89
SGF stability, Residual peptide [1]: 99.89 and 99.67 and 97.09
remaining at 8 h [1]: 99 ± 2%
microsomal CLint [2, 8]: 48.3 µL/min/mg
microsomal CLint [2, 9]: 57.4 µL/min/mg
microsomal CLint [2, 10]: 60.2 µL/min/mg
half-life [2, 11]: 28.7 min
half-life [2, 12]: 24.2 min
half-life [2, 13]: 23 min
half-life [2, 14]: 25 ± 2 min
microsomal CLint [2, 15]: 55 ± 5 µL/min/mg
Rat alpha thrombin inhibition, slope normalized to DMSO [3, 16]: 3.9 and 4.8 and 10.9
Rat alpha thrombin inhibition, slope normalized to DMSO ([3]; peptide 1.67E+01 uM): 9.1 and 8.9 and 16.0
Rat alpha thrombin inhibition, slope normalized to DMSO ([3]; peptide 2.08E+00 uM): 42.2 and 39.9 and 27.8
Rat alpha thrombin inhibition, slope normalized to DMSO ([3]; peptide 3.33E+01 uM): 5.4 and 4.9 and 14.0
Rat alpha thrombin inhibition, slope normalized to DMSO ([3]; peptide 4.17E+00 uM): 24.5 and 25.5 and 24.4
Rat alpha thrombin inhibition, slope normalized to DMSO ([3]; peptide 6.67E+01 uM): 4.0 and 4.6 and 11.6
Rat alpha thrombin inhibition, slope normalized to DMSO ([3]; peptide 8.33E+00 uM): 18.9 and 18.5 and 19.5
Human alpha thrombin inhibition, slope normalized to DMSO ([4]; peptide 1.02E-03 uM): 98.3 and 96.5 and 99.8
Human alpha thrombin inhibition, slope normalized to DMSO ([4]; peptide 1.04E+00 uM): 84.1 and 76.8 and 79.3
Human alpha thrombin inhibition, slope normalized to DMSO ([4]; peptide 1.27E-04 uM): 100.0 and 98.1 and 101.1
Human alpha thrombin inhibition, slope normalized to DMSO ([4]; peptide 1.30E-01 uM): 95.4 and 96.3 and 96.1
Human alpha thrombin inhibition, slope normalized to DMSO [4, 16]: 7.7 and 17.1 and 13.6
Human alpha thrombin inhibition, slope normalized to DMSO ([4]; peptide 1.63E-02 uM): 97.0 and 96.5 and 98.2
Human alpha thrombin inhibition, slope normalized to DMSO ([4]; peptide 1.67E+01 uM): 27.2 and 28.7 and 30.2
Human alpha thrombin inhibition, slope normalized to DMSO ([4]; peptide 2.03E-03 uM): 100.7 and 96.1 and 100.3
Human alpha thrombin inhibition, slope normalized to DMSO ([4]; peptide 2.08E+00 uM): 72.7 and 80.3 and 72.0
Human alpha thrombin inhibition, slope normalized to DMSO ([4]; peptide 2.54E-04 uM): 101.2 and 95.7 and 100.6
Human alpha thrombin inhibition, slope normalized to DMSO ([4]; peptide 2.60E-01 uM): 93.2 and 89.7 and 91.7
Human alpha thrombin inhibition, slope normalized to DMSO ([4]; peptide 3.18E-05 uM): 102.0 and 95.9 and 100.7
Human alpha thrombin inhibition, slope normalized to DMSO ([4]; peptide 3.26E-02 uM): 97.3 and 93.9 and 91.1
Human alpha thrombin inhibition, slope normalized to DMSO ([4]; peptide 3.33E+01 uM): 17.1 and 15.9 (2×)
Human alpha thrombin inhibition, slope normalized to DMSO ([4]; peptide 4.07E-03 uM): 99.1 and 96.8 and 105.4
Human alpha thrombin inhibition, slope normalized to DMSO ([4]; peptide 4.17E+00 uM): 57.2 and 53.3 and 58.0
Human alpha thrombin inhibition, slope normalized to DMSO ([4]; peptide 5.09E-04 uM): 99.5 and 108.3 and 102.0
Human alpha thrombin inhibition, slope normalized to DMSO ([4]; peptide 5.21E-01 uM): 89.3 and 86.3 and 89.6
Human alpha thrombin inhibition, slope normalized to DMSO ([4]; peptide 6.36E-05 uM): 101.1 and 95.4 and 95.5
Human alpha thrombin inhibition, slope normalized to DMSO ([4]; peptide 6.51E-02 uM): 97.1 and 92.8 and 96.9
Human alpha thrombin inhibition, slope normalized to DMSO ([4]; peptide 6.67E+01 uM): 14.5 and 13.5 and 16.4
Human alpha thrombin inhibition, slope normalized to DMSO ([4]; peptide 8.14E-03 uM): 99.5 and 100.5 and 98.6
Human alpha thrombin inhibition, slope normalized to DMSO ([4]; peptide 8.33E+00 uM): 48.2 and 47.8 and 48.5
PAMPA permeability: % permeability [5]: 2.5 ± 1.2%
Papp at 50 μM [5]: 0.151 ×10⁻⁶ cm/s
Permeability% Average [5]: 2.5%
Permeability% R1 [5]: 3.72%
Permeability% R3 [5]: 2.35%
remaining at 8 h [6]: 92 ± 9%
SIF stability, Residual peptide Average [7]: 91.64
SIF stability, Residual peptide ([7]; single replicates R1-R3): 89.51 and 84.30 and 101.11
SMILES: O=C1NCCSCc2cccc(n2)CSC[C@H](NC(=O)c2ccc(Cl)s2)C(=O)N[C@@H](CO)C(=O)NCc2cccc1c2 [compound 27]
